The values that follow come from ChEMBL document CHEMBL1139153, “Comparison of the in vitro apparent permeability and stability of opioid mimetic compounds with that of the native peptide” (Bioorg Med Chem Lett, 2007).

A short description of the series: Apparent permeability from apical to basolateral side of human Caco-2 cell membrane. It counts as ADME, cell-based. In general terms: Caco-2 monolayers are a common model of the intestinal barrier.

The Papp A→B is how fast a substance crosses the layer from the apical side. As for `Cc1cc(O)cc(C)c1CC(N)C(=O)NCCCCc1nc(O)c(CCCCNC(=O)C(N)Cc2c(C)cc(O)cc2C)nc1C` (centres undefined), the Papp A→B amounted to 0.845 ×10⁻⁶ cm/s. The result for `Cc1cc(O)cc(C)c1CC(N)C(=O)NCCCc1nc(O)c(CCCNC(=O)C(N)Cc2c(C)cc(O)cc2C)nc1C` (centres undefined) reads 0.547 ×10⁻⁶ cm/s. Turning to `Cc1cc(O)cc(C)c1CC(N)C(=O)NCCCCNC(=O)C(N)Cc1c(C)cc(O)cc1C` (centres undefined), the Papp A→B was determined as 0.139 ×10⁻⁶ cm/s. Turning to `NC(=O)[C@H](Cc1ccccc1)NC(=O)[C@H](Cc1ccccc1)NC(=O)[C@@H]1CCCN1C(=O)[C@@H](N)Cc1ccc(O)cc1` [ENDOMORPHIN 2], the Papp A→B is 0.0643 ×10⁻⁶ cm/s.
